Entries after “also recorded” stand apart in the source; their conditions may differ.
Key:
[1] = system: histone acetylation; assay: Western blot of histone acetylation in neuroendocrine prostate cancer LASCPC-01 cells, 24 hours; format: cell-based; conditions: FIG. 3 (A)
Protocol: (§1) FIG. 3. Provided compounds can provide various activities. (A): Provided technologies can reduce KAT2A and KAT2B levels and histone acetylation levels. […] Cell viability (Cell Titer Glo) data relative to DMSO control after 7 days of treatment with compound 22 are presented as examples to confirm inhibition. GI50=5 nM. (C): Provided technologies can modulate cell states and induce differentiation. […] (D): Provided technologies can reduce KAT2A and KAT2B levels and histone acetylation levels including in neuroendocrine prostate cancer primary patient organoid. […] Concentrations are nM. […] Cell viability data relative to DMSO control after 21 days of treatment with compound 22 are presented as examples to confirm inhibition. GI50=3 nM. (F): Provided technologies can modulate cell states and induce differentiation.

[2] = system: NCI-H1048 human lung cancer xenograft; assay: NCI-H1048 human lung cancer xenograft model, tumor growth inhibition (BALB/c nude mice); format: in vivo, mouse (BALB/c nude); human tumor cells; conditions: FIG. 1
From the text: Among other things, provided technologies are useful for treating various diseases, disorders, or conditions. For example, in some embodiments, provided technologies are useful for treating cancer as confirmed in the present Example. In some embodiments, the present disclosure provides technologies for assessing various technologies, e.g., compounds, compositions, or methods. Among other things, the present Example provides technologies, e.g., xenograft model, for assessing various technologies. In some embodiments, provided technologies are assessed in tumor xenograft model. In some embodiments, provided technologies are assessed in NCI-H1048 human lung cancer xenograft model. […]
As described herein, various provided technologies are assessed in cancer xenograft models. […] A number of doses were assessed including 30 mg/kg. Assessed compounds were administered orally or via the intraperitoneal route. […]
Cell culture: NCI-H1048 tumor cells are maintained in vitro as monolayer culture in HITES Medium supplemented with 5% fetal bovine serum at 37° C. in an atmosphere of 5% CO2 in air. […] The cells growing in an exponential growth phase are harvested and counted for tumor inoculation. […]
Measurement Parameters: For routine monitoring, animals are monitored for tumor growth, behavior (e.g., mobility, food and water consumption), body weight (BW), eye/hair matting and other effects. […]

[3] = system: NCI-H1048 tumors; assay: Tumor growth inhibition in nude Balb/c mice bearing NCI-H1048 tumors; format: in vivo; conditions: 30 mg/kg, once per week i.p.; average tumor volumes from 6 mice; FIG. 1 (D)
Protocol: (§2) FIG. 1. Provided compounds can provide various activities including inhibiting tumor growth in vivo. (A): Provided compounds can inhibit tumor growth in vivo. Nude Balb/c mice were inoculated with NCI-H1048 cells in Matrigel. Tumors were allowed to grow up to about 200 mm^3 and mice were then randomized into two groups. Mice were dosed intraperitoneally (i.p.) once per week with vehicle or 30 mg/kg compound 22. Tumor size was measured every three to four days and mice were sacrificed once vehicle tumors reached 2000 mm^3. Error bar is SEM. Dosing started at day 17 post tumor inoculation. (B): Provided technologies can reduce KAT2A and KAT2B levels and histone acetylation levels. […] Vehicle is DMSO. […] Cell count data relative to DMSO control after 8 days of treatment with compound 22 are presented as examples to confirm inhibition. GI50=6 nM. (D): Provided technologies can inhibit tumor growth in vivo. Nude balb/c mice inoculated with H1048 tumors were dosed intraperitoneally once per week (qw i.p.) with vehicle (HbCD) or compound 22. Average tumor volumes+/−SEM from 6 mice are represented. […] See also (A). […] Certain body weights relative to starting weight are presented as examples to confirm tolerability and safety. (F): Provided technologies can reduce KAT2A and KAT2B levels and histone acetylation levels in tumor in vivo. […]

[4] = system: CD86; assay: CD86 by flow cytometry (monocytic differentiation), MOLM-13 cells, 48 hours; format: cell-based; conditions: FIG. 2 (C)
Protocol: FIG. 2. Provided compounds can provide various activities. (A): Provided technologies can reduce KAT2A and KAT2B levels and histone acetylation levels. […] Cell count data after 8 days of treatment with compound 22 relative to DMSO control are presented as examples to confirm inhibition. […] (C): Provided technologies can modulate cell states and induce differentiation. […] EC50=0.3 nM.

[5] = biological target: KAT2B (Homo sapiens, UniProt Q92831); assay: Western blot of KAT2B level in neuroendocrine prostate cancer LASCPC-01 cells, 24 hours; format: cell-based; design: degrader, Western blot; conditions: FIG. 3 (A)
Sequence of KAT2B (Q92831 whole entry): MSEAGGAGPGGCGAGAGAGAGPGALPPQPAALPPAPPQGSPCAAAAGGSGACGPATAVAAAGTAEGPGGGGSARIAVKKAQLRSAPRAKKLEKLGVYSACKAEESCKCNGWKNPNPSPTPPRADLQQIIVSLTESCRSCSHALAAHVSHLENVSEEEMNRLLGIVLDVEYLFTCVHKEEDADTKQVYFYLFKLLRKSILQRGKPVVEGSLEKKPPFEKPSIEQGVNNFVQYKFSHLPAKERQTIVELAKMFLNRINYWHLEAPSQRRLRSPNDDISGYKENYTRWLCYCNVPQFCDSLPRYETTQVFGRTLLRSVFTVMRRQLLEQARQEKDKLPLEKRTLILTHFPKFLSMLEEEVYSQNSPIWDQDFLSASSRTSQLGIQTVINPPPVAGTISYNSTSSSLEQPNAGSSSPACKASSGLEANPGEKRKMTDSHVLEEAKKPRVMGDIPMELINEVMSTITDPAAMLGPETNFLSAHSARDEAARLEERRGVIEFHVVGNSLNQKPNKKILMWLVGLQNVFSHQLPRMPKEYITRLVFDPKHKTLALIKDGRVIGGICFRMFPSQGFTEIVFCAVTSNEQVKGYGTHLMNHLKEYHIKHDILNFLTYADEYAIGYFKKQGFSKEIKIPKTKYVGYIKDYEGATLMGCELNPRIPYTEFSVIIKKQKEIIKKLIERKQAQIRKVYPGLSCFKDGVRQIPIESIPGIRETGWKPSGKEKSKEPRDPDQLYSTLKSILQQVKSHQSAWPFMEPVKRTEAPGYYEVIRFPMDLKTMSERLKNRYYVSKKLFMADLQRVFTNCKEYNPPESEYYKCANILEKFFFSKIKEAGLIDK
Protocol: as §1

[6] = system: epithelial GSEA; assay: Epithelial GSEA in NCI-H1048 tumors of treated mice; format: in vivo; conditions: tumors treated as compared to vehicle; FIG. 1 (G)
Protocol: as §2

## CN1C[C@H](Nc2cnn(C)c(=O)c2Br)C[C@H](c2ccc(C(=O)N3CCC(CN4CCN(c5ccc6c(c5)CN(C5CCC(=O)NC5=O)C6=O)CC4)CC3)cc2)C1 (stereo partly drawn) [Compound 22, 3-(5-(4-((1-(4-((3R,5R)-5-((5-bromo-1-methyl-6-oxo-1,6-dihydropyridazin-4-yl)amino)-1-methylpiperidin-3-yl)benzoyl)piperidin-4-yl)methyl)piperazin-1-yl)-1-oxoisoindolin-2-yl)piperidine-2,6-dione]
[1]
  reduction of histone acetylation level: confirm such reduction
[2]
  tumor growth inhibition in vivo: tumor growth inhibition in vivo; also recorded: inhibit cell growth in vitro and in vivo
[3]
  tumor growth inhibition: 70%
[4]; CD86 flow cytometry at 48 hours
  monocytic differentiation: monocytic differentiation was observed
[4]; Homo sapiens, flow cytometry at 48 hours
  EC50: 0.3 nM
[5]
  reduction of KAT2B level: confirm such reduction
[6]
  epithelial GSEA: significant upregulation

From patent US20260306640A1, “TECHNOLOGIES TARGETING CELL STATES” (Auron Therapeutics, Inc., priority 2023, published 2026)
